≈ marks a conversion by molar mass, not a printed value. Counter-ions that a name gives are not always drawn. Like-named read-outs stand apart in the source and are kept apart here.
Experiments:
[1] = system: E. coli W 3630 RGN 238; assay: microbe, parasite or virus in culture; format: cell-based; details: Escherichia coli, W3630RGN238, 20 h
[2] = system: Ps. cepacia M-0527; assay: antibacterial spectrum, MIC (Table 2); format: cell-based; details: Burkholderia cepacia, M0527, nutrient agar, 37° C., 20 hours
[3] = system: Kleb. pneumoniae GN 69; assay: antibacterial spectrum, MIC (Table 2); format: cell-based; details: Klebsiella pneumoniae, GN69, nutrient agar, 37° C., 20 hours
[4] = system: E. coli ML 1410; assay: antibacterial spectrum, MIC (Table 2); format: cell-based; details: Escherichia coli, ML1410, nutrient agar, 37° C., 20 hours
[5] = system: Ps. aeruginosa MB-3829; assay: antibacterial spectrum, MIC (Table 2); format: cell-based; details: Pseudomonas aeruginosa
[6] = system: Sta. aureus 209P JC-1; assay: antibacterial spectrum, MIC (Table 2); format: cell-based; details: Staphylococcus aureus, nutrient agar, 37° C., 20 hours
[7] = system: Sta. aureus Smith (I); assay: antibacterial spectrum, MIC (Table 2); format: cell-based; details: Staphylococcus aureus, nutrient agar, 37° C., 20 hours
[8] = system: Escherichia coli No. 29; assay: therapeutic treatment of bacterial infection in mice, ED50; format: in vivo; details: male ICR mice; E. coli No. 29 intraperitoneally, 2.0×10^7 cells per mouse; subcutaneous injection 30 minutes after inoculation
Protocol: Thirty minutes after the inoculation, the mice were each treated by subcutaneous injection of 0.2 ml of a solution of the test compound in physiological saline. In this way, the ED50 value of the test compounds was determined. Cefoxitin and the 6059-S Compound (di-Na salt) were also tested in the same manner as above, for the comparison purpose.

[9] = system: E. coli W 3630 RGN 823; assay: microbe, parasite or virus in culture; format: cell-based; details: Escherichia coli, W3630RGN823, 20 h
[10] = system: B. subtilis ATCC 6633; assay: antibacterial spectrum, MIC (Table 2); format: cell-based; details: Bacillus subtilis, ATCC6633, nutrient agar, 37° C., 20 hours
[11] = system: Pro. mirabilis GN 79; assay: antibacterial spectrum, MIC (Table 2); format: cell-based; details: Proteus mirabilis, GN79, nutrient agar, 37° C., 20 hours
[12] = system: Sal. typhimurium LT-2; assay: antibacterial spectrum, MIC (Table 2); format: cell-based; details: Salmonella enterica, nutrient agar, 37° C., 20 hours
[13] = system: Pro. vulgaris GN 76; assay: antibacterial spectrum, MIC (Table 2); format: cell-based; details: Proteus vulgaris, GN76, nutrient agar, 37° C., 20 hours
[14] = system: Pro. morganii 1510; assay: antibacterial spectrum, MIC (Table 2); format: cell-based; details: Morganella morganii, nutrient agar, 37° C., 20 hours
[15] = system: Shigella dysenteriae Shigae; assay: microbe, parasite or virus in culture; format: cell-based; details: 20 h
[16] = system: Citro freundii GN 346/16; assay: antibacterial spectrum, MIC (Table 2); format: cell-based; details: nutrient agar, 37° C., 20 hours
[17] = system: Escherichia coli GN; assay: Minimum Inhibitory Concentration "in vitro" (Table 1); format: cell-based
[18] = system: Escherichia coli No. 29; assay: as above; format: cell-based

Row | SMILES | MIC [1] | MIC [2] | MIC [3] | MIC [4] | MIC ([5]; MB3829, 20 h) | MIC [6] | MIC [7] | ED50 value [8] | MIC [9] | MIC [10] | MIC [11] | MIC [12] | MIC [13] | MIC [14] | MIC [15] | MIC [16] | MIC [17] | MIC ([5]; MB3829, Ps. aeruginosa MB-3829, nutrient agar, 37° C., 20 hours, read-out: MIC) | MIC [18]
1 | CO[C@@]1(NC(=O)C(C(=O)O)c2ccc(O)cc2)C(=O)N2C(C(=O)O)=C(CSc3nnnn3C)CO[C@@H]21 (stereo partly drawn) [6059-S Compound, 7β-(α-p-hydroxyphenyl-α-carboxyacetoamido)-7α-methoxy-3-[(1-methyl-1H-tetrazole-5-yl)thiomethyl]-1-oxadethia-3-cephem-4-carboxylic acid, reference compound] | 0.2 µg/mL (≈ 0.384 µM) | 6.25 µg/mL (≈ 12 µM) | 0.39 µg/mL (≈ 0.749 µM) | 0.1 µg/mL (≈ 0.192 µM) | 3.13 µg/mL (≈ 6.01 µM) | 6.25 µg/mL (≈ 12 µM) | 6.25 µg/mL (≈ 12 µM) | 0.16 mg/mouse | 0.05 µg/mL (≈ 0.0961 µM) | 25 µg/mL (≈ 48 µM) | 0.39 µg/mL (≈ 0.749 µM) | 0.2 µg/mL (≈ 0.384 µM) | 0.39 µg/mL (≈ 0.749 µM) | 0.39 µg/mL (≈ 0.749 µM) | 0.1 µg/mL (≈ 0.192 µM) | 0.1 µg/mL (≈ 0.192 µM) |  |  | 
2 | CO[C@@]1(NC(=O)Cc2cccs2)C(=O)N2C(C(=O)O)=C(COC(N)=O)CS[C@@H]21 [Cefoxitin, reference compound] |  |  |  |  |  |  |  | 0.50 mg/mouse |  |  |  |  |  |  |  |  |  |  | 
3 | CO[C@@]1(NC(=O)CSC[C@@H](N)C(=O)O)C(=O)N2C(C(=O)O)=C(CSc3nnnn3C)CO[C@@H]21 [Example 1, 7β-[(2D-2-amino-2-carboxy)ethylthioacetoamido]-7α-methoxy-3-[(1-methyl-1H-tetrazol-5-yl)thiomethyl]-1-oxadethia-3-cephem-4-carboxylic acid sodium salt] | 0.39 µg/mL | 3.13 µg/mL | 0.78 µg/mL | 0.39 µg/mL |  | 3.13 µg/mL | 1.56 µg/mL | 0.03 mg/mouse | ≤ 0.025 µg/mL | 1.56 µg/mL | 0.2 µg/mL | 0.39 µg/mL | 0.39 µg/mL | 0.78 µg/mL | 0.2 µg/mL | 0.78 µg/mL | 0.39 µg/mL | 12.5 µg/mL | 0.39 µg/mL
4 | Cn1nnnc1SCC1=C(C(=O)O)N2C(=O)[C@@H](NC(=O)CSC[C@@H](N)C(=O)O)[C@H]2OC1 [Example 2, 7β-[(2D-2-Amino-2-carboxy)ethylthioacetoamido]-3-[(1-methyl-1H-tetrazol-5-yl)thiomethyl]-1-oxadethia-3-cephem-4-carboxylic acid sodium salt] |  |  |  |  |  |  |  | 0.05 mg/mouse |  |  |  |  |  |  |  |  | 3.13 µg/mL |  | 0.39 µg/mL
5 | CO[C@@]1(NC(=O)CSC[C@@H](N)C(=O)O)C(=O)N2C(C(=O)[O-])=C(C[n+]3ccc(C(N)=O)cc3)CO[C@@H]21 [Example 3, 7β-[(2D-2-Amino-2-carboxy)ethylthioacetoamido]-7α-methoxy-3-[(4-carbamoylpyridinium)methyl]-1-oxadethia-3-cephem-4-carboxylic acid] |  |  |  |  |  |  |  |  |  |  |  |  |  |  |  |  | 0.78 µg/mL (≈ 1.53 µM) |  | 0.78 µg/mL (≈ 1.53 µM)
